Converted amounts (≈) assume the structure as drawn.
Experiment: Inhibition of lipase

IC50	SMILES
> 100 µg/mL	COc1cc(C(=O)OCc2ccc(O[C@@H]3O[C@H](CO)[C@@H](O)[C@H](O)[C@H]3O)c(O)c2)ccc1O [VANILLOYL CALLERYANIN]
> 100 µg/mL	COc1cc(C(=O)OCc2ccc(O[C@@H]3O[C@H](COC(C)=O)[C@@H](O)[C@H](O)[C@H]3O)c(O)c2)ccc1O [LITSEAEFOLOSIDE A]
0.31 µg/mL (≈ 0.504 µM)	COc1cc(C(=O)OCc2ccc(O[C@@H]3O[C@H](COC(=O)/C=C/c4ccc(O)c(O)c4)[C@@H](O)[C@H](O)[C@H]3O)c(O)c2)ccc1O [LITSEAEFOLOSIDE C]
